# Key:
# WT-1 brown preadipocytes = assay: Seahorse Bioanalyzer cellular respiration in WT-1 brown preadipocytes; assay type: cell-based, murine; conditions: growth media, two days
# Text: The Seahorse XF24 (Seahorse Bioscience, http://www.seahorsebio.com/) was utilized for respirometry to measure oxygen consumption rates (OCR; indicating oxidative phosphorylation) and extracellular acidification rates (ECAR; indicating extracellular pH) in mature brown adipocytes. The cell plates and assay cartridges for the Seahorse XF24 have four ports allowing for drug delivery to individual wells during measurement of the metabolic parameters. For a typical bioenergetic profile, cells are first treated with oligomycin to block ATP synthase, FCCP as an uncoupler and Rotenone to block Complex 1 of the ETC (all from Sigma). Example 2 provides additional details regarding the general method. […]
# A profile of cellular respiration was developed by utilizing well-characterized mitochondrial toxins, as described in FIG. 5B. First, basal respiration was measured, followed by injection of oligomycin (an inhibitor of ATP synthase which allows measurement of ATP turnover). Then, the uncoupler FCCP (carbonilcyanide p-triflouromethoxyphenylhydrazone) was injected to measure respiratory capacity, followed by the complex 1 inhibitor rotenone (which prevents electron transfer activity and leaves only non-mitochondrial activity to be measured). […]
# The role of PGs in regulating mitochondrial function and cellular glucose uptake was also assessed. […]
# PTGS2 (COX2) = assay: PTGS2 mRNA / COX2 protein expression in WT-1 brown preadipocytes; assay type: cell-based, murine; conditions: WT-1, 24 hours; vs vehicle
# Experimental: Total RNA was isolated with QIAzol lysis reagent (Qiagen, Valencia, Calif.) and purified by RNeasy Mini columns (Qiagen) following the manufacture's instructions. cDNA was prepared from total RNA using the Advantage RT-PCR kit (BD Biosciences, Palo Alto, Calif.) according to manufacturer's instructions. Diluted cDNA was used in a PCR reaction with SYBR Green Master Mix (Applied Biosystems, Foster City, Calif.) and primers specifically designed for detection of the gene of interest. PCR reactions were run in duplicate for each sample and quantitated in the ABI Sequence Detection System (Applied Biosystems). Data were expressed as arbitrary units after normalization to levels of expression of internal controls for each sample. Sequences of primers for specific genes are each obtained from the published literature or designed using publically available gene sequence databases. Unless otherwise indicated, gene expression data described in the examples below was obtained using QPCR.
# Cells were harvested in lysis buffer (50 mM HEPES, 137 mM NaCl, 1 mM MgCl2, 1 mM CaCl2, 10 mM Na2P2O7, 10 mM NaF, 2 mM EDTA, 10% glycerol, 1% Igepal CA-630, 2 mM vanadate, 10 μg/ml of leupeptin, 10 μg/ml of aprotinin, 2 mM phenylmethylsulfonyl fluoride; pH 7.4). After lysis, lysates were clarified by centrifugation at 12,000×g for 20 min at 4° C., the amount of protein in the supernatants was determined by the Bradford Protein Assay (Bio-Rad Laboratories, Hercules, Calif.). Proteins were directly solubilized in Laemmli sample buffer. Equal amounts of lysates were separated by sodium dodecyl sulfate-polyacrylamide gel electrophoresis and transferred to Immobolin-P membranes. […] Specifically bound primary antibodies were detected with peroxidase-coupled secondary antibody and enhanced chemiluminescence (ECL, Amersham Biosciences, Piscataway, N.J.).
# To determine if FGF4, FGF5, FGF6, FGF10, FGF16, FGF17, FGF18 or FGF20 induced either UCP1 mRNA or PTGS2 mRNA expression, murine brown preadipocyte WT-1 cells (Tseng et al., Nat. Cell. Biol. (2005) 7(6):601-611) were grown in growth media (DMEM-high glucose+10% FBS) supplemented with FGF4, FGF5, FGF6, FGF10, FGF16, FGF17, FGF18, FGF20 or buffer (control) in combination with insulin (20 nM) and triidothyronine (T3, 1 nM) for three days. All FGFs were used at a dosage of 200 ng/mL. mRNA was isolated and UCP1 and PTGS2 gene expression levels were evaluated by quantitative reverse transcription polymerase chain reaction (Q-RT-PCR) analysis. […]
# To test the role of specific prostaglandins (PGs) in activating UCP1 expression, WT-1 brown adipocytes were pretreated with PGE2, PGI2 and FGF6 for 24 hours. mRNA expression levels of UCP1, PTGS2, LDHA, PDK1 and PKM2 were then measured.
Structure (SMILES),oxygen consumption in WT-1 brown preadipocytes (WT-1 brown preadipocytes),PTGS2 mRNA expression (PTGS2 (COX2))
"CCCCC[C@H](O)/C=C/[C@@H]1[C@H]2C/C(=C/CCCC(=O)O)O[C@H]2C[C@H]1O [PGI2, reference compound]",enhanced,significantly induced
"CCCCC[C@H](O)/C=C/[C@H]1[C@H](O)CC(=O)[C@@H]1C/C=C\CCCC(=O)O [PGE2, reference compound]",enhanced,significantly induced
